The values that follow come from ChEMBL document CHEMBL1143586, “Dimeric zanamivir conjugates with various linking groups are potent, long-lasting inhibitors of influenza neuraminidase including H5N1 avian influenza” (J Med Chem, 2005).

Data set [1] is described as follows: Plasma half life in rat after 2 mg/kg intravenous dosage. Type of data set: ADME, organism-based. Also on record: dose 2 mg/kg, route intravenous.
Data set [2] is described as follows: Plasma half life in rat after 0.4 mg/kg intratracheal dosage. Type of data set: ADME, organism-based. As to conditions: inhaled or intranasal. On the set-up: dose 0.4 mg/kg, route endotracheal.
Data set [3] relates to Influenza A virus.
Data set [4] has as its system Influenza B virus.
Data set [5] deals with Influenza B virus. This is another data set of the same source.
In data set [6] the test system is Influenza A virus. The source holds these as a separate data set.
The test system of data set [7] is Influenza A virus. This is another data set of the same source.
Data set [8] concerns Influenza A virus. This is another data set of the same source.
Data set [9] concerns Influenza A virus. The source holds these as a separate data set.
Data set [10] in a line: in vivo. Particulars: rat, plasma.
Data set [11] in a line: in vivo. Particulars: rat.
Data set [12] can be described thus: in vivo. Particulars: rat, po.
A short description of data set [13]: in vivo. Particulars: rat, inhaled or intranasal.
In data set [14] the test system is Mus musculus. Kind of data set: Single intranasal effective dose required to inhibit viral replication in the 7-Day mouse efficacy model (Dosed with influenza A/Victoria/3/75). Type of data set: functional. As to conditions: inhaled or nasal, 168 h.
Data set [15] in a line: Plasma half life in rat after 10 mg/kg oral dosage. The data set is classed as ADME, organism-based. On the set-up: dose 10 mg/kg, route oral.
For data set [16], the target named is Neuraminidase (Influenza A virus (A/Puerto Rico/8/1934(H1N1)), UniProt P03468).
Neuraminidase (Influenza A virus (A/Puerto Rico/8/1934(H1N1)), UniProt P03468), sequence (P03468 whole entry): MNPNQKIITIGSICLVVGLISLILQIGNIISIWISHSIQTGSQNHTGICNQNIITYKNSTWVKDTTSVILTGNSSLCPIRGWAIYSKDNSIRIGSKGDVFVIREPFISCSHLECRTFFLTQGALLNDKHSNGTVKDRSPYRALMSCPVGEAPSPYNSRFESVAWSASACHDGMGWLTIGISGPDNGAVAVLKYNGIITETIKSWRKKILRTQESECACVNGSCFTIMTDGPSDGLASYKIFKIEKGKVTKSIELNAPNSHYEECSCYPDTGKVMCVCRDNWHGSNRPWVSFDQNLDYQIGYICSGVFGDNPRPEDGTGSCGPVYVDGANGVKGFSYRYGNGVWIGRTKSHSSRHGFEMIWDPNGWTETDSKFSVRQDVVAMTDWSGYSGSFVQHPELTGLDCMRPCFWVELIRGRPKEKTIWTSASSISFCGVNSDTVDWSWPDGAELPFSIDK
Data set [17] has the same target. The source holds these as a separate data set.
Data set [18] has the same target. The source holds these as a separate data set.
Data set [19] concerns Influenza B virus. This is another data set of the same source.
Data set [20] is described as follows: in vivo. Particulars: rat, po. The source holds these as a separate data set.
Data set [21] has as its system Mus musculus. Kind of data set: Single intranasal effective dose required to inhibit viral replication in the 7-Day mouse efficacy model (Dosed with influenza A/Singapore /1/57). Type of data set: functional. As to conditions: inhaled or nasal, 168 h.
Data set [22] relates to Influenza A virus. The source holds these as a separate data set.

In brackets after ≈: the same amount, converted by molar mass. Several values for one entry are separate records, joined by “and”; a condition that tells them apart may be missing. Identical values can stand only once. Where only a bound is given, the exact number is not on record here.

Take `COC(=O)C1=C[C@H](N=C(N)N)C(NC(C)=O)[C@H]([C@H](OC(=O)NCCCNC(=O)c2ccc(C(=O)NCCCNC(=O)O[C@H](C(O)CO)[C@@H]3OC(C(=O)O)=C[C@H](N=C(N)N)C3NC(C)=O)cc2)C(O)CO)O1` (some centres not stated): the half-life – broadly, the time needed for the level to fall by half in the phase considered – in data set [1] was 0.4 h; in [2] it was 2 h. Moreover, the half-maximal effective concentration (EC50) (commonly the concentration at which the effect is half-maximal) in the data set with Influenza A virus [3] was determined as 0.02 ng/mL (≈ 0.0198 nM); with Influenza B virus [4], 0.32 ng/mL (≈ 0.317 nM); with Influenza B virus [5], 0.022 ng/mL (≈ 0.0218 nM); in the data set with Influenza A virus [6], 0.009 ng/mL (≈ 0.00892 nM); in the data set with Influenza A virus [7], 0.05 ng/mL (≈ 0.0496 nM); in the data set on Influenza A virus [8] it was 0.06 ng/mL (≈ 0.0595 nM). In the data set with Influenza A virus [9], this molecule displayed an EC50 of 0.03 ng/mL (≈ 0.0297 nM). In the data set “in vivo [10]”, the clearance – broadly, the rate of elimination divided by the concentration – is 0.042 L/h/kg. For the same molecule, in the data set “in vivo [11]”, the Vd – broadly, a proportionality between amount in the body and measured concentration, not a real space – amounted to 0.2 L/kg. Moreover, the bioavailability (in general, dose-corrected exposure relative to a reference, in per cent) was below 1% in the data set “in vivo [12]” and 67% in the data set “in vivo [13]”.
In the data set with Mus musculus [14], `CC(=O)NC1[C@@H](N=C(N)N)C=C(C(=O)O)O[C@H]1[C@H](OC(=O)NCCCCCCCCCCCCNC(=O)O[C@H](C(O)CO)[C@@H]1OC(C(=O)O)=C[C@H](NC(=N)N)C1NC(C)=O)C(O)CO` (some centres not stated) showed an ED90 of 0.03 mg/kg. Besides, the half-life was 4.9 h in [15], 2.2 h in [1] and 5 h in data set [2]. The IC50 – broadly, the concentration needed to halve the response being measured – in data set [16] is 0.0217 µM; in data set [17] it was 0.00786 µM; in data set [18] it was 0.061 µM. Besides, the EC50 in the data set with Influenza B virus [19] is 0.05 ng/mL and 0.1 ng/mL; in the data set on Influenza B virus [4], 0.37 ng/mL (≈ 0.403 nM); in the data set with Influenza A virus [7], 0.032 ng/mL (≈ 0.0349 nM); with Influenza A virus [9], 0.032 ng/mL (≈ 0.0349 nM). Besides, in “in vivo [10]”, the clearance stood at 0.042 L/h/kg. The molecule further returned a Vd in the data set “in vivo [11]” of 0.2 L/kg. For the same molecule, the bioavailability is below 1% in the data set “in vivo [20]” and 67% in “in vivo [13]”.
In the data set on Mus musculus [21], `[H]/N=C(\N)N[C@H]1C=C(C(=O)O)O[C@@H]([C@H](O)[C@H](O)CO)C1NC(C)=O` (some centres not stated) returned an ED90 of 2.92 mg/kg. For the same molecule, the half-life was 0.25 h in [15] and 0.4 h in data set [1]. Besides, the concentration for a half-maximal effect (EC50) in the data set with Influenza A virus [3] is 56 ng/mL and > 100 ng/mL; in the data set with Influenza B virus [19] it was 11.5 ng/mL (≈ 34.6 nM); in the data set on Influenza B virus [4] it was 21 ng/mL (≈ 63.2 nM); in the data set with Influenza A virus [6], 35 ng/mL (≈ 105 nM); in the data set with Influenza A virus [7], 2.4 ng/mL (≈ 7.22 nM); in the data set on Influenza A virus [8], 0.27 ng/mL (≈ 0.812 nM). Also, the 50% effective concentration (EC50) in the data set with Influenza A virus [22] worked out at 5.5 ng/mL (≈ 16.6 nM); in the data set with Influenza A virus [9] it was 2.7 ng/mL (≈ 8.12 nM). In “in vivo [10]”, this molecule showed a clearance of 0.0852 L/h/kg. In “in vivo [11]”, this molecule gave a Vd of 0.03 L/kg. For the same molecule, the bioavailability in “in vivo [20]” amounted to 2.7%.
